Reference: the NIST ThermoML archive (doi:10.1021/je900221m)

Assay: cn = amount concentration of the nth substance listed, in mol/dm3
Conditions: 101 kPa, Liquid, Taylor dispersion method

NNC(=O)c1ccncc1 [isonicotinic acid hydrazide] + O
binary diffusion coefficient [m2/s]
Conditions	c1 = 0	c1 = 0.005	c1 = 0.01	c1 = 0.02	c1 = 0.05	c1 = 0.1
298.15 K	8.26e-10	8.25e-10	8.23e-10	8.21e-10	8.14e-10	8.09e-10
310.15 K	1.19e-09	1.18e-09	1.15e-09	1.11e-09	1.09e-09	1.04e-09
